Results from PMC9124651, “High-performance thin-layer chromatography in combination with an acetylcholinesterase-inhibition bioassay with pre-oxidation of organothiophosphates to determine neurotoxic effects in storm, waste, and surface water” (Analytical and Bioanalytical Chemistry, 2022).

Legend:
[1] = biological target: T1, AChE from electric eel (Electrophorus electricus) (Electrophorus electricus, UniProt O42275); assay: HPTLC-(Ox)-AChE-I assay, immersion method (plates immersed in AChE solution); type: biochemical; settings: without oxidation; for IC10 (10% AChE inhibition), best fit / IC20 (20% AChE inhibition), best fit / IC50 (50% AChE inhibition), best fit / IC80 (80% AChE inhibition), best fit: OTPs 100 µL, oxons 10 µL applied, peak heights, n = 3
T1 construct: purchased Sigma-Aldrich GmbH (Steinheim, Germany)
T1 sequence (O42275 24-633): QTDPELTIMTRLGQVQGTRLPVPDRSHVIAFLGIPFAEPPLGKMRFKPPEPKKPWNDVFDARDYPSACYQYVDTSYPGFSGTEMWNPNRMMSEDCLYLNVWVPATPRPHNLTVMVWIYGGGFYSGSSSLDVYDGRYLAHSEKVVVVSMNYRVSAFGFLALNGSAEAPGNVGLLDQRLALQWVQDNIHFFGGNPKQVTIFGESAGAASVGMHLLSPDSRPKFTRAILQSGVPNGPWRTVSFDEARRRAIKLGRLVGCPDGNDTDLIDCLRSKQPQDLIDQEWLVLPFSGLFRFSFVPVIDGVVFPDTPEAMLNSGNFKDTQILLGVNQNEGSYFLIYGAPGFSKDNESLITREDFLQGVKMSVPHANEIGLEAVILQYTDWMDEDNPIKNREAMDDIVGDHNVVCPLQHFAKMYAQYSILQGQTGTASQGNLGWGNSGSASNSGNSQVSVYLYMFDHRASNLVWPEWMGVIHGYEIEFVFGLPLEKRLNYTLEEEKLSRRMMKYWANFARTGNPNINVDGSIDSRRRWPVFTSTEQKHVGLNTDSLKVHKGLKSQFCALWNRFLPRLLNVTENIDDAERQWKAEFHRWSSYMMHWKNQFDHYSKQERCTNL
Method: (§1) LiChrospher 10 × 20 cm HPTLC Silica gel 60 F254s plates (Merck, Darmstadt, Germany) with a layer thickness of 170–190 µm and spherical silica particles with a size of 7 µm were used. The HPTLC plates were immersed twice in 2-propanol for 20 min, each time followed by a drying step at room temperature for 20 min. The plates then were pre-developed with methanol, dried for 20 min at room temperature, heated at 105 °C for 20 min, and stored in a desiccator for further use. The automatic TLC Sampler 4 (ATS 4, CAMAG AG, Muttenz, Switzerland) was used for sample application. The desired sample volumes were sprayed as 6-mm-wide bands onto the HPTLC plates with an application speed of 300 nL/s. The distances of the exterior bands from the edges of the plates were 15 mm. The distance from the bottom edge was 8 mm for all bands. Methanol was used as rinsing solvent. The following further application parameters were used: filling speed 15 µL/s, pre-dosage volume 200 nL, retraction volume 200 nL, rinsing vacuum time 4 s, filling vacuum time 0 s, rinsing cycles 2, and filling cycles 1. The development of the HPTLC plates was realized by the Automated Multiple Development 2 (AMD 2, CAMAG, Muttenz, Switzerland). The OTPs, their oxons, and environmental samples were separated with an eluent mixture of cyclohexane, dichloromethane, and acetone in different proportions and with increasing migration distances (Fig. S2). After each development step, a drying step of 3 min under vacuum followed. The final migration distance was 80 mm and the whole procedure took approximately 45 min. In addition, a simpler development process was used containing only the last step of the previous described method.
(§2) After chromatographic development, 10 mL of freshly prepared NBS (100 µg/mL) was sprayed onto the HPTLC plates with a glass reagent sprayer, followed by a 5-min incubation at room temperature. The following AChE-I assay was performed in parts according to Mendoza et al., Stütz et al., and Weins and Jork. AChE was buffered in TRIS/HCl at a pH of 7.8 (2.5 U/mL). The AChE solution was either sprayed onto the HPTLC plates with a glass reagent sprayer until the plates were evenly moist (approx. 10 mL) or the plates were immersed in the AChE solution using the Chromatogram Immersion Device 3 (CID 3, CAMAG, Muttenz, Switzerland). The immersion volume, speed, time, and depth were approx. 200 mL, 2.5 cm/s, 2 s, and approx. 85 mm, respectively. Afterward, the plates were placed separately in closed plastic boxes, which contained paper towels moistened with water to gain a saturated atmosphere. An incubation at 37 °C for 5 min followed. The substrate indoxyl acetate was freshly prepared in methanol at a concentration of 20 mg/mL and 5 mL was sprayed onto the HPTLC plates with a glass reagent sprayer. During 45-min incubation time at room temperature, AChE cleaves the substrate into indoxyl and acetate. The indoxyl reacts with oxygen to the blue indigo dye. When AChE was inhibited, no indigo was produced and the spot stayed white. The TLC Scanner 3 (CAMAG, Muttenz, Switzerland) was used to scan each track on the plates at 670 nm using the fluorescence mode without optical filter. The CAMAG-embedded software Wincats (Vers. 1.4.9) was used to provide chromatograms of each track and to evaluate inhibition zones.
Several amounts of an OTP mix and an oxon mix were applied on HPTLC plates (Tab. S2) and tested as described in the “Combination of HPTLC and AChE-inhibition assay” section. Three plates were used for each dilution series. The application volume was 10 µL for investigating OTPs with following oxidation and 100 µL for testing OTPs without following oxidation. The application volume for the oxons was 10 µL. They were tested without oxidation step also in triplicates. The peak heights were used for evaluation. Only peaks that have a signal-to-noise ratio ≥ 3 were considered in the evaluation. The height next to the respective peak defines the noise. […]

[2] = biological target: T1, AChE from electric eel (Electrophorus electricus); assay: HPTLC-(Ox)-AChE-I assay, spray method (AChE sprayed onto plates); type: biochemical; settings: spray method, without oxidation; for IC10 (10% AChE inhibition), best fit / IC20 (20% AChE inhibition), best fit / IC50 (50% AChE inhibition), best fit / IC80 (80% AChE inhibition), best fit: OTPs 100 µL, oxons 10 µL applied, peak heights, n = 3
Method: as §1
as §2, with “The” for “After chromatographic development, 10 mL of freshly prepared NBS (100 µg/mL) was sprayed onto the HPTLC plates with a glass reagent sprayer, followed by a 5-min incubation at room temperature. The”
Several amounts of an OTP mix and an oxon mix were applied on HPTLC plates (Tab. S2) and tested as described in the “Combination of HPTLC and AChE-inhibition assay” section. Three plates were used for each dilution series. The application volume was 10 µL for investigating OTPs with following oxidation and 100 µL for testing OTPs without following oxidation. The application volume for the oxons was 10 µL. They were tested without oxidation step also in triplicates. The peak heights were used for evaluation. Only peaks that have a signal-to-noise ratio ≥ 3 were considered in the evaluation. The height next to the respective peak defines the noise.

Row | SMILES | LOD immersion method (first detected AChE-I peak with signal-to-noise ratio ≥ 3) [1] [ng/spot] | IC10 (10% AChE inhibition), best fit [1] [ng/spot] | IC20 (20% AChE inhibition), best fit [1] [ng/spot] | IC50 (50% AChE inhibition), best fit [1] [ng/spot] | IC80 (80% AChE inhibition), best fit [1] [ng/spot] | LOD spray method (first detected AChE-I peak with signal-to-noise ratio ≥ 3) [2] [ng/spot] | IC10 (10% AChE inhibition), best fit [2] [ng/spot] | IC20 (20% AChE inhibition), best fit [2] [ng/spot] | IC50 (50% AChE inhibition), best fit [2] [ng/spot] | IC80 (80% AChE inhibition), best fit [2] [ng/spot]
1 | CCOC(=O)CC(SP(=O)(OC)OC)C(=O)OCC (centres unmarked) [Malaoxon, malaoxon] | 0.1 | 0.14 | 0.24 | 0.60 | 1.5 | 0.1 | 0.16 | 0.28 | 0.75 | 2.0
2 | CCOP(=O)(OCC)Oc1nc(Cl)c(Cl)cc1Cl [Chlorpyrifos-oxon] | 0.25 | 0.32 | 0.57 | 1.5 | 4.0 | 0.25 | 0.72 | 1.1 | 2.5 | 5.4
